Laboratory results as given in paper PMC8253220, “Molecular design, synthesis and in vitro biological evaluation of thienopyrimidine–hydroxamic acids as chimeric kinase HDAC inhibitors: a challenging approach to combat cancer” (Journal of Enzyme Inhibition and Medicinal Chemistry, 2021).
Values joined by “and” are separate entries in the source; they are usually repeats but may differ in a detail not shown here. Identical values can stand only once.

How the values were obtained:
full NCI 60 cell panel = assay: NCI one-dose screen, whole panel statistics; assay type: cell-based, human; conditions: 1.00E-5 Molar; for Mean Growth Percent: mean over panel
Experimental: (§1) All of the synthesised structures were selected and submitted to NCI based on computer modelling techniques and the degree of diversity of structures for the evaluation of their antiproliferative activity. The 20 synthesised compounds were selected with their respective NCI codes [NCS D-820157- NCS D-820176] for the inhibition percent assay at an initial single dose of 10 μM on the full NCI 60 cell panel, where the mean graph of the percent growth for all compounds on the full NCI cell panel is evaluated, compared to the untreated control cells (Supplementary Material). In vitro cell line inhibition % of all synthesised compounds is represented in (Table 1 of Supplementary Material).
(§2) All of the synthesised compounds (20) were submitted to NCI and selected for in vitro anticancer assay against a panel of 60 cancer cell lines. The methodology of assay and calculations is as reported.

EGFR = EGFR (Homo sapiens, UniProt P00533); assay: In vitro EGFR tyrosine kinase inhibitory assay (Z'-LYTE, SelectScreen); assay type: biochemical; conditions: 10 µM single dose
Sequence of EGFR (P00533 25-1210): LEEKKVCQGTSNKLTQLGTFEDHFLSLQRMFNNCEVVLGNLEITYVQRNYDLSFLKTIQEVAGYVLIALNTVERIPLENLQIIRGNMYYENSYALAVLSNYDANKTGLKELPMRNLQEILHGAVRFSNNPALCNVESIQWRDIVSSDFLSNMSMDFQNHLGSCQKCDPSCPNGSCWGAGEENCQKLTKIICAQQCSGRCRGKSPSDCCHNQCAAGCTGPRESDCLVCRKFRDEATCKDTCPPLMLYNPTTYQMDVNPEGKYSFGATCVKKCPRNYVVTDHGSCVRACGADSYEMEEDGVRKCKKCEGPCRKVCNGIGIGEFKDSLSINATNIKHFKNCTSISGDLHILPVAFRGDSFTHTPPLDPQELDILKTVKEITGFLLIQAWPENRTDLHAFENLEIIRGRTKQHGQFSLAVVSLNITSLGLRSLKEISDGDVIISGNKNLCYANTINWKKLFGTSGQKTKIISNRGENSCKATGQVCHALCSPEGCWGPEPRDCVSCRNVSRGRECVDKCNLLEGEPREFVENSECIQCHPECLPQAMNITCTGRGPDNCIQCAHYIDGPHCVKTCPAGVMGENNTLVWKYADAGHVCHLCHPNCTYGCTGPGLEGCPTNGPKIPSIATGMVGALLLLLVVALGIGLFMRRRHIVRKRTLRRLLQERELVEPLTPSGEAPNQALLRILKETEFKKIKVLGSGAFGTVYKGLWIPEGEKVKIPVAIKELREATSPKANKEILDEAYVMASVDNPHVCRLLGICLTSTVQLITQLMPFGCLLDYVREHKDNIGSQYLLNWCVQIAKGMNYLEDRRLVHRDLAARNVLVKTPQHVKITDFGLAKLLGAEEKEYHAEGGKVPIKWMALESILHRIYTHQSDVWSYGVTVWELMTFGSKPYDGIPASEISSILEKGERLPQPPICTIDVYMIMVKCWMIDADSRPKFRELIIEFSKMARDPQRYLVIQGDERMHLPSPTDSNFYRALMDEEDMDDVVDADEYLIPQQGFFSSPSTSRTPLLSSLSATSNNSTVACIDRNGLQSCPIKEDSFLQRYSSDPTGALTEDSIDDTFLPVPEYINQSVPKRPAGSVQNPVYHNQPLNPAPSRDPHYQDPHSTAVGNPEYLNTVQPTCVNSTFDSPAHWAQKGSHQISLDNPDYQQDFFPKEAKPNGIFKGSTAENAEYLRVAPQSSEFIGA
Experimental: The target compounds were evaluated for their in vitro inhibitory activities against EGFR, VEGFR-2, and HDAC6. The EGFR and VEGFR-2 inhibitory assays were performed at Thermo Fischer Scientific, Madison, WI, USA (SelectScreenServices@thermofisher.com). The HDAC inhibitory assays were performed at BPS Bioscience, San Diego, CA, USA (www.bpsbioscience.com). Initially, all of the synthesised target compounds were evaluated for their percent inhibitory activity against EGFR, VEGFR-2, and HDACs at 10 µM single dose concentration, in which their mean percent inhibition is summarised in (Figure 5, Tables 1 and [2]). Representative compounds were evaluated for their percent inhibitory activity against EGFR and VEGFR-2 at 6 different concentrations (0.1 nM, 1 nM, 10 nM, 100 nM, 1 µM, 10 µM) to subsequently calculate their IC50 values (Table 3). Additionally, all of the synthesised target compounds were submitted to the National Cancer Institute “NCI” Bethesda, Maryland, USA (www.dtp.nci.nih.gov), to evaluate theirs in vitro antiproliferative activities against NCI 60- cancer cell line panel.
In vitro enzyme inhibition determination for the synthesised compounds was carried out in Thermo Fischer Scientific, Madison, WI, USA (SelectScreenServices@thermofisher.com). The EGFR and VEGFR-2 tyrosine kinase % inhibitory activity at a single-dose concentration of 10 µM was performed initially then representative compounds were evaluated at single-dose concentrations of (0.1 nM, 1 nM, 10 nM, 100 nM, 1 µM) using ZYLTE technology. A fluorescence-based, coupled-enzyme format is employed in the biochemical assay and depends on the sensitivity of proteolytic cleavage to non-phosphorylated and phosphorylated peptides. Then IC50 values for selected compounds were determined by GraphPad Prism at Misr international university.

SK-OV-3 = assay: NCI one-dose screen; assay type: cell-based, human; conditions: Ovarian SK-OV-3, 10 µM single dose
Experimental: as §1, §2

MDA-MB-231/ATCC = assay: NCI one-dose screen; assay type: cell-based, human; conditions: Breast MDA-MB-231/ATCC, 10 µM single dose
Experimental: as §1, §2

MALME-3M = assay: NCI one-dose screen; assay type: cell-based, human; conditions: Melanoma MALME-3M, 10 µM single dose
Experimental: as §1, §2

SW-620 = assay: NCI one-dose screen; assay type: cell-based, human; conditions: Colon SW-620, 10 µM single dose
Experimental: as §1, §2

SK-MEL-5 = assay: NCI one-dose screen; assay type: cell-based, human; conditions: Melanoma SK-MEL-5, 10 µM single dose
Experimental: as §1, §2

MDA-MB-468 = assay: NCI one-dose screen; assay type: cell-based, human; conditions: Breast MDA-MB-468, 10 µM single dose
Experimental: as §1, §2

MCF7 = assay: NCI one-dose screen; assay type: cell-based, human; conditions: Breast MCF7, 10 µM single dose
Experimental: as §1, §2

IGROV1 = assay: NCI one-dose screen; assay type: cell-based, human; conditions: Ovarian IGROV1, 10 µM single dose
Experimental: as §1, §2

T-47D = assay: NCI one-dose screen; assay type: cell-based, human; conditions: Breast T-47D, 10 µM single dose
Experimental: as §1, §2

SN12C = assay: NCI one-dose screen; assay type: cell-based, human; conditions: Renal SN12C, 10 µM single dose
Experimental: as §1, §2

EKVX = assay: NCI one-dose screen; assay type: cell-based, human; conditions: NSCLC EKVX, 10 µM single dose
Experimental: as §1, §2

PC-3 = assay: NCI one-dose screen; assay type: cell-based, human; conditions: Prostate PC-3, 10 µM single dose
Experimental: as §1, §2

HCC-2998 = assay: NCI one-dose screen; assay type: cell-based, human; conditions: Colon HCC-2998, 10 µM single dose
Experimental: as §1, §2

RXF 393 = assay: NCI one-dose screen; assay type: cell-based, human; conditions: Renal RXF 393, 10 µM single dose
Experimental: as §1, §2

OVCAR-5 = assay: NCI one-dose screen; assay type: cell-based, human; conditions: Ovarian OVCAR-5, 10 µM single dose
Experimental: as §1, §2

NCI-H460 = assay: NCI one-dose screen; assay type: cell-based, human; conditions: NSCLC NCI-H460, 10 µM single dose
Experimental: as §1, §2

HOP-62 = assay: NCI one-dose screen; assay type: cell-based, human; conditions: NSCLC HOP-62, 10 µM single dose
Experimental: as §1, §2

ACHN = assay: NCI one-dose screen; assay type: cell-based, human; conditions: Renal ACHN, 10 µM single dose
Experimental: as §1, §2

COLO 205 = assay: NCI one-dose screen; assay type: cell-based, human; conditions: Colon COLO 205, 10 µM single dose
Experimental: as §1, §2

UACC-257 = assay: NCI one-dose screen; assay type: cell-based, human; conditions: Melanoma UACC-257, 10 µM single dose
Experimental: as §1, §2

LOX IMVI = assay: NCI one-dose screen; assay type: cell-based, human; conditions: Melanoma LOX IMVI, 10 µM single dose
Experimental: as §1, §2

NCI-H226 = assay: NCI one-dose screen; assay type: cell-based, human; conditions: NSCLC NCI-H226, 10 µM single dose
Experimental: as §1, §2

K-562 = assay: NCI one-dose screen; assay type: cell-based, human; conditions: Leukemia K-562, 10 µM single dose
Experimental: as §1, §2

SMILES	melting point	Delta (one dose mean graph) (full NCI 60 cell panel)	Range (one dose mean graph) (full NCI 60 cell panel)	Mean Growth Percent (full NCI 60 cell panel)	inhibition at 10 µM (EGFR)	Growth Percent (SK-OV-3)	Growth Percent (MDA-MB-231/ATCC)	Growth Percent (MALME-3M)	Growth Percent (SW-620)	Growth Percent (SK-MEL-5)	Growth Percent (MDA-MB-468)	Growth Percent (MCF7)	Growth Percent (IGROV1)	Growth Percent (T-47D)	Growth Percent (SN12C)	Growth Percent (EKVX)	Growth Percent (PC-3)	Growth Percent (HCC-2998)	Growth Percent (RXF 393)	Growth Percent (OVCAR-5)	other results
COc1cccc(NC(=O)Nc2ccc(Nc3ncnc4sc(C(=O)NCCCC(=O)NO)c(C)c34)cc2)c1 [Compound 12b, 1–(4-(6-((4-(hydroxyamino)-4-oxobutyl)carbamoyl)-5-methylthieno[2,3-d]pyrimidin-4-ylamino)phenyl)-3–(3-methoxyphenyl)urea]	231 to 233 °C	18.34%	33.01%	100.10%	5%	114.7% and 114.77%	97.0% and 97.05%	95.2% and 95.25%	101.5% and 101.51%	97.3% and 97.37%	97.0% and 97.02%	91.5%	97.0% and 97.08%	97.6% and 97.69%	104.5% and 104.52%	92.1% and 92.11%	98.6% and 98.65%	108.5% and 108.55%	110.4% and 110.44%	107.5% and 107.59%	Growth Percent (NCI-H460): 99.1%; Growth Percent (HOP-62): 100.4% and 100.49%; Growth Percent (ACHN): 98.6% and 98.68%; Growth Percent (COLO 205): 111.3% and 111.31%; Growth Percent (UACC-257): 104.3% and 104.35%; Growth Percent (LOX IMVI): 90.7% and 90.77%; Growth Percent (NCI-H226): 96.6% and 96.68%; Growth Percent (K-562): 101.6% and 101.69%
Cc1c(C(=O)NO)sc2ncnc(Nc3cccc4[nH]cnc34)c12 [Compound 15a, 4-(1H-benzo[d]imidazol-4-ylamino)-N-hydroxy-5-methylthieno[2,3-d]pyrimidine-6-carboxamide]	280 °C	22.48%	43.89%	103.12%	45%	124.5% and 124.53%	102.4% and 102.49%	109.7% and 109.71%	103.6% and 103.66%	101.5% and 101.54%	101.3% and 101.31%	95.2% and 95.25%	97.9% and 97.91%	108.3% and 108.35%	102.0% and 102.01%	98.4% and 98.44%	104.3% and 104.34%	100.9% and 100.92%	101.2% and 101.28%	107.0% and 107.01%	Growth Percent (NCI-H460): 102.7% and 102.72%; Growth Percent (HOP-62): 104.2%; Growth Percent (ACHN): 99.1% and 99.11%; Growth Percent (COLO 205): 112.8% and 112.81%; Growth Percent (UACC-257): 112.4% and 112.47%; Growth Percent (LOX IMVI): 97.5% and 97.58%; Growth Percent (NCI-H226): 99.3% and 99.31%; Growth Percent (K-562): 101.00%
Cc1c(C(=O)NCCC(=O)NO)sc2ncnc(Nc3ccc(F)c(Cl)c3)c12 [Compound 19d, 4–(3-chloro-4-fluorophenylamino)-N-(3-(hydroxyamino)-3-oxopropyl)-5-methylthieno[2,3-d]pyrimidine-6-carboxamide]	276 °C	19.56%	44.43%	104.37%	96%	129.2% and 129.24%	102.5% and 102.53%	112.6% and 112.63%	101.5%	101.8% and 101.85%	102.7% and 102.77%	95.1% and 95.18%	106.2% and 106.28%	106.5% and 106.56%	102.7% and 102.77%	99.4% and 99.43%	103.5% and 103.52%	104.7% and 104.72%	102.0% and 102.06%	108.4% and 108.42%	Growth Percent (NCI-H460): 100.4% and 100.44%; Growth Percent (HOP-62): 104.5% and 104.52%; Growth Percent (ACHN): 102.1% and 102.14%; Growth Percent (COLO 205): 117.3% and 117.34%; Growth Percent (UACC-257): 99.7% and 99.74%; Growth Percent (LOX IMVI): 98.8% and 98.84%; Growth Percent (NCI-H226): 104.0% and 104.06%; Growth Percent (K-562): 113.3%
